Laboratory results taken from US9452126B2, “Pharmaceutical/cosmetic compositions comprising hyaluronic acid and treatment of dermatological conditions therewith” (Galderma Research & Development, priority 2005, dated 2016).

Target: T1, hyaluronidase of bovine origin (Bos taurus, UniProt Q2YDK3)
T1 sequence (Q2YDK3 36-553): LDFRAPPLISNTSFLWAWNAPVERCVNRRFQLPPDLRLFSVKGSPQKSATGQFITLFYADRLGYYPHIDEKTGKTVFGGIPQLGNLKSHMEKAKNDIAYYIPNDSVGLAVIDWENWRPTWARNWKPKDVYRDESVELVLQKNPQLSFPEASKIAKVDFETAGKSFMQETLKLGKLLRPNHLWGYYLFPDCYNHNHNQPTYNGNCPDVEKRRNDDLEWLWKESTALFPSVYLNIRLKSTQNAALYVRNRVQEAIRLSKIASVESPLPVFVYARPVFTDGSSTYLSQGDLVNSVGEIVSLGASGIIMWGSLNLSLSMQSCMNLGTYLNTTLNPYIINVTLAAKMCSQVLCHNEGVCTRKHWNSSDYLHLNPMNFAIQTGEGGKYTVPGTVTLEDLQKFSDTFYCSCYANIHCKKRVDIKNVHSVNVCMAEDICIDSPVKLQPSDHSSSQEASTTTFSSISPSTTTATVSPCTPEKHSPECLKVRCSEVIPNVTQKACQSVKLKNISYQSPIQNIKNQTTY
Assay: Inhibitory effect on hyaluronidase activity of bovine origin (turbidimetry at 600 nm)
Type: biochemical
Settings: GLZ pre-incubated for 20 minutes at 37° C. with the enzyme
Experimental: Determination of the IC50 of GLZ, with or without Pre-Incubation at 37° C.:
GLZ, at various concentrations, is or is not pre-incubated for 20 minutes at 37° C. in the presence of the enzyme. The enzyme reaction is triggered by adding the hyaluronic acid solution (time T0). After incubation for 20 minutes, the non-hydrolyzed hyaluronic acid is precipitated by adding acidic bovine albumin solution.
In order to verify that the pre-incubation step has no effect on the stability of the hyaluronidase, an aliquot of a solution of the enzyme is placed at 37° C. for 20 minutes. Another aliquot is conserved in an ice bath for 19 minutes, and is then incubated at 37° C. for 1 minute. A solution of hyaluronic acid is then added to each aliquot (T0). After incubation for 15, or 45 minutes, the non-hydrolyzed hyaluronic acid is precipitated by addition of acidic bovine albumin solution.
Measurement of the Hyaluronidase Activity of Bovine Origin:
After the precipitation step, the turbidimetry of the solutions is determined on a spectrophotometer at a wavelength of 600 nm. The optical density (OD) of these solutions is subtracted from the OD of a control solution of hyaluronic acid (of the same concentration) not hydrolyzed by the enzyme. This difference in OD, which is inversely proportional to the concentration of hyaluronic acid, is used to measure the activity of the hyaluronidase.

## CC1(C)[C@@H](O[C@H]2O[C@H](C(=O)O)[C@@H](O)[C@H](O)[C@H]2O[C@@H]2O[C@H](C(=O)O)[C@@H](O)[C@H](O)[C@H]2O)CC[C@]2(C)[C@H]3C(=O)C=C4[C@@H]5C[C@@](C)(C(=O)O)CC[C@]5(C)CC[C@@]4(C)[C@]3(C)CC[C@@H]12 [GLZ, glycyrrhizin]
  IC50: 350 µM
